Assay results as given in US7888367B2, “1-[2′,3′ -dideoxy-3′ C-(hydroxymethyl)—beta-D-erythro-pentofuranosyl] cytosine derivatives as HIV” (Medivir AB, priority 2005, dated 2011).

How the values were obtained:
[1] = reference compounds (markers) of the permeability assay; cited from earlier work
[2] = system: HIV-1 isolate 4 (K65R+M184V discriminative mutant); assay: PhenoSense HIV assay, Example 2d; type: cell-based
[3] = system: HIV-1 primer rescue-related TAM patient isolates 20 and 21; assay: PhenoSense HIV assay, Example 2a; type: cell-based; conditions: for potency against patient virus compared to wildtype: isolates 20 and 21
Protocol: (§1) The susceptibility of the compounds of the invention, measured as the plasma metabolite 2′,3′-dideoxy, 3′-C-hydroxymethyl-β-D-erythropentofuranosylcytosine on HIV-1 isolates from patient plasma samples that bear typical TAM primer rescue mutant resistant genotypes is determined by the commercially available PhenoSense HIV assay (described in Petropoulos, C J et al., (2000) Antimicrob. Agents Chemother. 44:920-928 and performed by ViroLogics, Inc). The assay is performed by amplifying the protease (PR)—RT segment of the HIV pol gene from patient plasma and inserting the amplification products into a modified HIV-1 vector derived from an NL4-3 molecular clone.
(§2) Viral stocks are prepared by co-transfecting 293 cell cultures with recombinant viral DNA vector and an expression vector that produces the amphotropic murine leukemia virus envelope proteins. Pseudotyped virus particles are harvested from the transfected cell cultures and are used to infect fresh 293 cell cultures. The recombinant viral DNA contains a luciferase gene cassette within the HIV env gene region and the production of luciferase in target cells is dependent on the completion of one round of virus replication. Drug susceptibility is measured by adding serial concentrations of the compound of the invention and the reference compounds to the cells. Drugs that inhibit virus replication reduce luciferase signal in a dose-dependent manner, providing a quantitative measure of drug susceptibility.
Wild-type HIV virus is used as the reference. Here, the inhibition of the patient isolate 20 and 21 strains is expressed as the fold change in reduction of susceptibility to the treatment drug as compared to parallel runs of the reference. The following antiviral drugs were tested: AZT, 3TC, TNF, ABC, d4T, FTC and the compound of the invention, as the plasma metabolite 2′,3′-dideoxy, 3′-C-hydroxymethyl-β-D-erythropentofuranosylcytosine.

[4] = system: TAM primer rescue-related resistant HIV-1 isolates in PBMC; assay: Drug susceptibility assay in PBMC culture (p24 antigen); type: cell-based
Protocol: The antiviral performance of the compound of the invention against additional TAM primer rescue-related resistant HIV isolates was assayed in a PBMC culture. Isolates of HIV-1 were generated and expanded to high titer by co-cultivation of infected patient PBMC with PHA-stimulated donor PBMC (Virology Manual for ACTG HIV Laboratories). The cell-free supernatants were harvested, sequenced, and stored in aliquots at −70° C. for drug susceptibility assays.
In vitro drug susceptibility assays were performed using a modified ACTG/DOD consensus method (Virology Manual for ACTG HIV laboratories). PBMCs were pre-infected with viral stocks for 4 hrs at 37° C. in a humidified atmosphere of 5% CO2 following 4 hr incubation. Infected cells were washed twice in media and pipetted into a microtiter plate with eight serial drug dilutions. Each well contained 100,000 pre-infected PBMC and all drug dilutions were made with cell culture medium. The drug dilutions were chosen to span the 50% inhibitory concentration (IC50) for each single drug. Control wells containing cells and virus were co-incubated on each plate. After a 7-day incubation at 37° C. in a […] atmosphere of 5% CO2, viral growth was determined using a p24 antigen assay on supernatants (Abbott Laboratories, Chicago, USA). The percent inhibition of viral growth compared to the control well, which contained no drug, was calculated and expressed as fold changes (reductions in compounds susceptibility) compared to the control well. The reference compound AZT was run in parallel with the compound of the invention.
A cluster of representative of primer rescue-related mutant virus was selected that harbors the essential feature of primer rescue-related TAM resistant RT mutations. Strains with mutations at position M41L, D67N, K70R, L210W, T215Y/F and K219Q/E in various combinations with or without discriminative mutant M184V were used as indicated in Table 4.

[5] = system: HIV-1 TAM primer rescue-related patient isolate 19 (M184V + TAMs); assay: PhenoSense HIV assay, Example 2b; type: cell-based
Protocol: as §1
as §2, with “The recombinant viral DNA contains a luciferase gene cassette within the HIV env gene region and the production of luciferase in target cells is dependent on the completion of one round of virus replication.” left out, “susceptibility. […]” for “susceptibility.”

[6] = system: HIV-1 primer rescue-related patient isolates 31, 32 and 35 (T69S+XX+TAMs); assay: PhenoSense HIV assay, Example 2c; type: cell-based
Protocol: as §1, §2
Continuous challenge of patients with antiretroviral agents results in the emergence of MDR. A T69S mutation with a 6-bp insertion between amino acids 68 and 70 in the finger region of RT is often seen in combination with various forms of TAMs and contributes to an enhanced primer rescue activity. A cluster of MDR (with different forms of amino acid insertion(s)) in combination with TAM was chosen, as outlined in Table 3.

Structure (SMILES): OC[C@@H](O)[C@@H](O)[C@H](O)[C@H](O)CO [Mannitol]
- % absorption in man [1]: 16%

Structure (SMILES): Nc1ccn([C@@H]2CS[C@H](CO)O2)c(=O)n1 [Example 3TC, lamivudine]
- FC value (fold change in susceptibility) [2]: > 200

Structure (SMILES): C[C@H](Cn1cnc2c(N)ncnc21)OCP(=O)(O)O [TFN, tenofovir]
- potency against patient virus compared to wildtype [3]: lost potency

Structure (SMILES): Cc1cn([C@H]2C[C@H](N=[N+]=[N-])[C@@H](CO)O2)c(=O)[nH]c1=O [AZT, zidovudine]
- FC value (fold change in susceptibility) [2]: 1.11
- FC value ([4]; isolate 7086 (T215V)): 3.0
- drop in FC value ([4]; most of the selected primer rescue mutants): a couple of hundred folds
- activity against the resistant virus [5]: lost activity
- fold reduction in susceptibility vs wild-type HIV ([3]; isolates 20 and 21, isolate not specified): 451 fold

Structure (SMILES): N[C@@H](Cc1ccccc1)C(=O)O [L-Phenylalanine]
- % absorption in man [1]: 100%

Structure (SMILES): Cc1cn([C@H]2C=C[C@@H](CO)O2)c(=O)[nH]c1=O [d4T, stavudine]
- FC value (fold change in susceptibility) [2]: 0.71
- potency against patient virus compared to wildtype [3]: lost potency

Structure (SMILES): Nc1nc(=O)n([C@@H]2CS[C@H](CO)O2)cc1F [FTC, emtricitabine]
- FC value (fold change in susceptibility) [2]: > 40
- potency against patient virus compared to wildtype [3]: lost potency

Structure (SMILES): Nc1ccn([C@H]2C[C@H](CO)[C@@H](CO)O2)c(=O)n1 [2′,3′-dideoxy, 3′-C-hydroxymethyl-β-D-erythropentofuranosylcytosine]
- FC value (fold change in susceptibility) [2]: 3.88
- highest FC value over all 8 isolates ([4]; all 8 isolates of Table 4): ≤ 2.7
- fold difference in susceptibility compared to wild type HIV [5]: 1.78 fold
- fold change in susceptibility ([6]; isolate 32): 2.79 fold
- fold change in susceptibility ([6]; isolate 35): 4.29 fold
- change in drug susceptibility compared with six reference antivirals ([6]; isolates 31, 32 and 35): smallest change in drug susceptibility
- fold reduction in susceptibility vs wild-type HIV ([3]; isolate 20): 1.0 fold
- fold reduction in susceptibility vs wild-type HIV ([3]; isolate 21): < 1.0 fold

Structure (SMILES): Nc1nc(NC2CC2)c2ncn([C@H]3C=C[C@@H](CO)C3)c2n1 [ABC, abacavir]
- FC value (fold change in susceptibility) [2]: > 9.0
- potency against patient virus compared to wildtype [3]: lost potency

Structure (SMILES): CN(Cc1cnc2nc(N)nc(N)c2n1)c1ccc(C(=O)N[C@@H](CCC(=O)O)C(=O)O)cc1 [Methotrexate]
- % absorption in man [1]: 20%
